One block for each molecule: values may come before it.
Legend:
[1] = target: T1, ^125 I-h CGRP binding site (CGRP receptor) in rat liver membranes (Rattus norvegicus, UniProt Q63118+Q9JJ74); experiment: 125I-h CGRP binding to rat liver membranes (saturation and competition)
T1 construct: from tissue; host or cells: rat liver membranes
Description: Membranes were prepared from male Wistar or Sprague-Dawley rats (200-250 grams). Following decapitation, liver, soleus muscle and brain regions were removed to phosphate-buffered saline (PBS), pH 7.4 at 4° C. Tissues were weighed then placed in 5 ml/g tissue of ice-cold 20 mM HEPES buffer, pH 7.4, and homogenized with a Polytron at setting 4 for 10 seconds. An additional 30 ml of cold HEPES was added, and the homogenates centrifuged for 15 minutes at 48,000×g. After discarding the supernatant fluids, membrane pellets were homogenized in 40 ml of fresh HEPES buffer and centrifuged as before. Membranes were washed again by homogenization in buffer and centrifugation.
The final membrane pellet was resuspended in a volume of 20 mM HEPES buffer containing 0.2 mM PMSF added immediately before use from a stock 0.2 M solution in ethanol. A volume of buffer was used sufficient to yield a concentration of about 0 to about 20 mg original tissue/ml.
To 12×75 mm glass or polypropylene tubes were added 150 μl of HBBM buffer (20 mM HEPES buffer, pH 7.4, containing 1 mg/ml bacitracin, 1 mg/ml protease-free BSA Fraction V, 4 mM MgCl2) to which 0.2 mM PMSF was added just prior to use.
To this solution, 50 μl of unlabeled peptide diluted in HBBM buffer at concentrations of […] to 10^-6 M, were added. Control tubes contained HBBM alone. […] Incubations were begun by the addition of 250 μl of buffer containing membranes from 4 mg original weight of tissue, and continued for 60 minutes at room temperature (24° C.).
Suspensions were then filtered through GF/B glass fiber filters (previously soaked for 5 hours in 0.3% PEI) in a Brandel M-24 harvester. Filters were washed immediately before use with 5 ml of cold PBS, and immediately after filtration with 15 ml cold PBS. Filters were then counted in a gamma-counter.
The concentration of free ligand was derived by subtracting […] from total ligand added.
Scatchard and competition curve analysis was performed as described above.

[2] = target: ^125 I-CGRP binding in skeletal muscle crude membrane preparations; details: Chantry et al.; cited from earlier work
[3] = target: T2, CGRP binding sites (receptors) on liver membrane (Rattus norvegicus, UniProt Q63118+Q9JJ74); details: Morishita et al.; read-out: Affinity; cited from earlier work
T2 construct: host or cells: liver membranes; crude skeletal muscle membranes
T2 sequence (Q63118 24-464): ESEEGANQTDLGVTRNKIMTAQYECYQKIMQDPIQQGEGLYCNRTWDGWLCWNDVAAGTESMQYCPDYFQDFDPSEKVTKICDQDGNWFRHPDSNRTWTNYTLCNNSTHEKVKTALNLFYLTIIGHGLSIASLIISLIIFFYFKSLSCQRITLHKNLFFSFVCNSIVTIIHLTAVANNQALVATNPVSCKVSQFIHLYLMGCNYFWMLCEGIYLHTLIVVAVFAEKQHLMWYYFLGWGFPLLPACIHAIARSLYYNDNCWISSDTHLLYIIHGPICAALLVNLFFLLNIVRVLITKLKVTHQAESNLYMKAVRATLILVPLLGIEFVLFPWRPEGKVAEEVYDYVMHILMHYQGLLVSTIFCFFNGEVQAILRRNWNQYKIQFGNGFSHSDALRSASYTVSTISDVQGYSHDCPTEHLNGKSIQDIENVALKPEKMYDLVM
T2 sequence (Q9JJ74 27-148): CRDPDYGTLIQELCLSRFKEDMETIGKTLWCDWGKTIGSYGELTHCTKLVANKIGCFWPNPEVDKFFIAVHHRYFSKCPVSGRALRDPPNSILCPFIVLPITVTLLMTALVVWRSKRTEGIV

[4] = target: T3, calcitonin sites in brain and renal membranes (Homo sapiens, UniProt P30988); details: cited from earlier work
T3 construct: host or cells: brain and renal membranes
T3 sequence (P30988 25-474): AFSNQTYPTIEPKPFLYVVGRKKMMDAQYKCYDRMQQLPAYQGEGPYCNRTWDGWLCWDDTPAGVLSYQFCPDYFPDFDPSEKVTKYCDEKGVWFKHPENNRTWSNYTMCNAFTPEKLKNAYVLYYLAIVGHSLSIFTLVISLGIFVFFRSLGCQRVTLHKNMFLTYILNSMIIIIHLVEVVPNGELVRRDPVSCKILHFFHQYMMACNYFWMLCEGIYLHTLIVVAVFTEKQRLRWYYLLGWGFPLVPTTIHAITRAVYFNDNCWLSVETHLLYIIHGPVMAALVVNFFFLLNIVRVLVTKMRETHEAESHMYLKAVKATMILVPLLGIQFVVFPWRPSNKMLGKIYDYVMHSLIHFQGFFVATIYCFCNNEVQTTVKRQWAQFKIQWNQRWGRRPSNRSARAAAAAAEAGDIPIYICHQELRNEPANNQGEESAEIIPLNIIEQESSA

[5] = tested on: CGRP binding sites in cerebral cortex; details: human and rat cerebral cortex; cited from earlier work
[6] = tested on: insulin-stimulated glycogen synthesis in rat soleus muscle; experiment: Rat soleus muscle insulin-antagonism assay (inhibition of insulin-stimulated glycogen synthesis); format: cell-based; details: for Agonist activity in words: amylin receptors in rat skeletal muscle; for IC50: insulin 1000 μU/ml, read-out: IC50 for inhibition of the stimulation of glycogen synthesis by insulin
Description: The ability of insulin to stimulate glycogen synthesis in rat soleus muscle in vitro was measured as described by Leighton B. and Cooper, G. J. S., Nature 335:632-635 (1988), with the following modifications. Rats were unfed for 4 hours prior to sacrifice; muscles were not stretched on clips; bovine serum albumin (BSA) and HEPES were omitted from the assay medium; and, the insulin concentration used was 1000 μU/ml.

[7] = Plasma glucose increment after i.v. peptide in fasted anesthetized rats; details: doses of 1 and 10 μg i.v.
[8] = tested on: rat soleus muscle membranes; experiment: Direct binding of labeled r amylin to rat soleus muscle membranes; details: by 1 μM unlabeled r amylin
Text: (§1) Control tubes contained HBBM alone.
(§2) Filters were then counted in a gamma-counter.

rat liver membranes = experiment: 125I-r amylin binding to rat liver membranes; details: 15 pM tracer; 1 μM h CGRP or 1 μM r amylin as displacing peptide
Text: as §1, §2

[9] = target: ^125 I-CGRP binding sites in membranes from rat cerebellum (Rattus norvegicus, UniProt Q63118+Q9JJ74)
Chain of ^125 I-CGRP binding sites in membranes from rat cerebellum (Q63118 24-464): as the sequence (Q63118 24-464) above
Chain of ^125 I-CGRP binding sites in membranes from rat cerebellum (Q9JJ74 27-148): as the sequence (Q9JJ74 27-148) above
Description: Binding assays were carried out as described in Example II.
Cerebellum membranes were also tested, as this area contains high densities of CGRP receptors but low to absent amounts of the variant CGRP receptor subtypes present in nucleus accumbens (Sexton et al., 1988).

[10] = target: ^125 I-h CGRP binding sites in nucleus accumbens and surrounding regions; experiment: Competition for 125I-h CGRP binding to nucleus accumbens area (basal forebrain) membranes; set-up: species or system rat
Text: From the ventral surface of rat brains, cuts were made rostral to the hypothalamus bounded laterally by the olfactory tracts and extending at a 45 angle medially from these tracts. This tissue, containing the nucleus accumbens and surrounding regions, was collected and weighed, and membranes prepared as described in Example I. The region from which tissue was collected as described above is here termed the basal forebrain, and includes the nucleus accumbens and surrounding regions.

T1 sequence (Q63118 24-464): as the sequence (Q63118 24-464) above
T1 sequence (Q9JJ74 27-148): as the sequence (Q9JJ74 27-148) above

- Increase of binding to liver membranes in the presence of MgCl2 ([1]; 2 mM MgCl2): about 2.8 fold
- Bmax ([1]; Scatchard analysis, rat liver membranes): 49.4 fmol/mg protein
Molecule: CC(C)C[C@H](NC(=O)CNC(=O)[C@H](C)NC(=O)[C@H](CC(C)C)NC(=O)[C@H](CCCNC(=N)N)NC(=O)[C@H](Cc1cnc(I)[nH]1)NC(=O)[C@@H](NC(=O)[C@@H](NC(=O)[C@@H]1CSSC[C@H](NC(=O)[C@H](C)N)C(=O)N[C@@H](CC(=O)O)C(=O)N[C@@H]([C@@H](C)O)C(=O)N[C@@H](C)C(=O)N[C@@H]([C@@H](C)O)C(=O)N1)C(C)C)[C@@H](C)O)C(=O)N[C@@H](CC(C)C)C(=O)N[C@@H](CO)C(=O)N[C@@H](CCCNC(=N)N)C(=O)N[C@@H](CO)C(=O)NCC(=O)NCC(=O)N[C@H](C(=O)N[C@H](C(=O)N[C@@H](CCCCN)C(=O)N[C@@H](CC(N)=O)C(=O)N[C@@H](CC(N)=O)C(=O)N[C@@H](Cc1ccccc1)C(=O)N[C@H](C(=O)N1CCC[C@H]1C(=O)N[C@H](C(=O)N[C@@H](CC(N)=O)C(=O)N[C@H](C(=O)NCC(=O)N[C@@H](CO)C(=O)N[C@@H](CCCCN)C(=O)N[C@@H](C)C(=O)N[C@@H](Cc1ccccc1)C(N)=O)C(C)C)[C@@H](C)O)C(C)C)C(C)C)C(C)C [^125 I-h CGRP]

Molecule: CGRP
- IC50 [2]: 300 pM
- Ki [3]: ~9 pM
- Fold less potent in competing for calcitonin sites [4]: 500-1000 fold
- Potency relative to h CGRP8-37 ([1]; liver membranes): 4 times
- Potency relative to r amylin ([1]; liver membranes): about 200 fold

Molecule: calcitonin
- Fold less potent than rat or human CGRP [5]: 500-1000 fold

- IC50 [6]: 400 pM
Molecule: eel calcitonin
- Agonist activity in words [6]: potent agonists at amylin receptors

Molecule: CC(C)C[C@H](NC(=O)[C@H](CC(N)=O)NC(=O)[C@H](CC(N)=O)NC(=O)[C@H](CO)NC(=O)[C@H](CO)NC(=O)[C@H](CCCNC(=N)N)NC(=O)[C@@H](NC(=O)[C@H](CC(C)C)NC(=O)[C@H](Cc1ccccc1)NC(=O)[C@H](CC(N)=O)NC(=O)[C@H](C)NC(=O)[C@H](CC(C)C)NC(=O)[C@H](CCCNC(=N)N)NC(=O)[C@H](CCC(N)=O)NC(=O)[C@@H](NC(=O)[C@H](C)NC(=O)[C@@H]1CSSC[C@H](NC(=O)[C@@H](N)CCCCN)C(=O)N[C@@H](CC(N)=O)C(=O)N[C@@H]([C@@H](C)O)C(=O)N[C@@H](C)C(=O)N[C@@H]([C@@H](C)O)C(=O)N1)[C@@H](C)O)C(C)C)C(=O)NCC(=O)N1CCC[C@H]1C(=O)N[C@H](C(=O)N[C@@H](CC(C)C)C(=O)N1CCC[C@H]1C(=O)N1CCC[C@H]1C(=O)N[C@H](C(=O)N[C@@H](CC(N)=O)C(=O)N[C@H](C(=O)NCC(=O)N[C@@H](CO)C(=O)N[C@@H](CC(N)=O)C(=O)N[C@H](C(=O)N[C@@H](Cc1ccc(O)cc1)C(N)=O)[C@@H](C)O)C(C)C)[C@@H](C)O)C(C)C [amylin]
- IC50 [2]: 10000 pM
- Hyperglycemic effect compared with CGRP [7]: more effective hyperglycemic agent

- IC50 [6]: 380 pM
Molecule: salmon calcitonin
- Agonist activity in words [6]: potent agonists at amylin receptors

- Proportion of total binding displaceable [8]: 15%
- Specific binding to rat liver membranes (rat liver membranes): No specific binding
Molecule: ^125 I-r amylin: rat amylin Bolton-Hunter labeled with 125I at the N-terminal lysine, from Amersham

Molecule: CC(C)C[C@H](NC(=O)[C@H](CC(N)=O)NC(=O)[C@H](CC(N)=O)NC(=O)[C@H](CO)NC(=O)[C@H](CO)NC(=O)[C@H](CCCNC(=N)N)NC(=O)[C@@H](NC(=O)[C@H](CC(C)C)NC(=O)[C@H](Cc1ccccc1)NC(=O)[C@H](CC(N)=O)NC(=O)[C@H](C)NC(=O)[C@H](CC(C)C)NC(=O)[C@H](CCCNC(=N)N)NC(=O)[C@H](CCC(N)=O)NC(=O)[C@@H](NC(=O)[C@H](C)NC(=O)[C@@H]1CSSC[C@H](NC(=O)[C@@H](N)CCCCN)C(=O)N[C@@H](CC(N)=O)C(=O)N[C@@H]([C@@H](C)O)C(=O)N[C@@H](C)C(=O)N[C@@H]([C@@H](C)O)C(=O)N1)[C@@H](C)O)C(C)C)C(=O)NCC(=O)N1CCC[C@H]1C(=O)N[C@H](C(=O)N[C@@H](CC(C)C)C(=O)N1CCC[C@H]1C(=O)N1CCC[C@H]1C(=O)N[C@H](C(=O)N[C@@H](CC(N)=O)C(=O)N[C@H](C(=O)NCC(=O)N[C@@H](CO)C(=O)N[C@@H](CC(N)=O)C(=O)N[C@H](C(=O)N[C@@H](Cc1ccc(O)cc1)C(N)=O)[C@@H](C)O)C(C)C)[C@@H](C)O)C(C)C [r amylin, rat amylin]
- Hill Slope [9]: -0.897
- IC50 [6]: 8300 ± 1900 pM
- Hill Slope ([1]; competition against ^125 I-h CGRP, rat liver membranes): -0.67
- IC50 ([10]; Nucleus Accumbens Area, ^125 I-h CGRP tracer, r amylin 2 site fit): 5890 pM
- IC50 ([10]; high affinity site of biphasic inhibition): 26 pM

From patent US5264372A (Amylin Pharmaceuticals, Inc., priority 1991, dated 1993)
